Reference: publication PMC12723449, “From Pharmacophore to Warhead: NAD^+‐Targeting Triazoles as Mechanism‐Based Sirtuin Inhibitors” (Angewandte Chemie (International Ed. in English), 2025)

Legend:
[1] = molecular target: T1, SIRT2 (Homo sapiens, UniProt Q8IXJ6); assay: Fluorescence polarization assay (FPA); assay type: binding; conditions: with versus without NAD+
T1 construct: For assay experiments, strep-tagged human SIRT1134−747 and SIRT256-356 were expressed and purified as previously; Strep-tag; made in house; host or cells: E. coli BL21 Star (DE3)
T1 sequence (Q8IXJ6 56-356 limits assumed): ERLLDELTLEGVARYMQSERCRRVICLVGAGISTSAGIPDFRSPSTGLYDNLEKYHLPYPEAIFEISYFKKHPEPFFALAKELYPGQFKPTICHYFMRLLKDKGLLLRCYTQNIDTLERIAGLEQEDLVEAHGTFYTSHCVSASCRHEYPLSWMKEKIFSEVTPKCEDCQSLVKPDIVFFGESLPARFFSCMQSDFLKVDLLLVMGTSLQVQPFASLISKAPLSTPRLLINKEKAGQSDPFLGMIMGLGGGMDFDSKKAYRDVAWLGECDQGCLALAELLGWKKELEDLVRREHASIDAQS
Method: Protein expression and purification for assays and crystallization
For assay experiments, strep-tagged human SIRT1134−747 and SIRT256-356 were expressed and purified as previously described.[2,4] Briefly, chemically competent E. coli BL21 Star (DE3) cells were transformed with pET30S-hSIRT1134−747 or pET30S-hSIRT256−356 plasmids. Cell cultures were grown in 2× YT medium (5 g/L NaCl, 16 g/L tryptone, 10 g/L yeast extract) supplemented with 50 μg/mL kanamycin at 37 °C reaching an OD600 of 0.6 − 0.7.
Protein expression of SIRT1134−747 and SIRT256−356 was induced with 1 mM IPTG (isopropyl β- D-1-thiogalactopyranoside), followed by incubation for 16 h at 20 °C. […]
Protein purity and identity were confirmed by SDS-PAGE and protein concentration was determined using the BCA assay with BSA as a standard. […] […]
A solution of 10 µL SIRT2 (final concentration of 6.0 µM) and SYPRO Orange (5x, Sigma-Aldrich, Germany) in assay buffer (25 mM Tris-HCl, 150 mM NaCl, 1 mM DTT, pH 8.0) was mixed with 10 µL of compound and incubated at 25 °C and 350 rpm for 5 min. […] Fluorescence intensity was recorded during a temperature gradient of 1°C per 20 s from 25 to 95°C using a real-time PCR machine (C1000 Touch™ Thermal Cycler, CFX96™ Real-Time System, BioRad, USA). […]

[2] = molecular target: T1, SIRT2; assay: Differential scanning fluorimetry (DSF) / fluorescence thermal shift assay; assay type: binding
Method: Differential scanning fluorimetry (DSF) assay
Differential scanning fluorimetry assays were performed in white 96-well plates (Hard-Shell PCR Plates, BioRad, USA) with a total volume of 20 µL per well and a final DMSO concentration of 5% (v/v), following a published
A solution of 10 µL SIRT2 (final concentration of 6.0 µM) and SYPRO Orange (5x, Sigma-Aldrich, Germany) in assay buffer (25 mM Tris-HCl, 150 mM NaCl, 1 mM DTT, pH 8.0) was mixed with 10 µL of compound and incubated at 25 °C and 350 rpm for 5 min. Where applicable, NAD+ was added to a final concentration of 2.5 mM. Fluorescence
(C1000 Touch™ Thermal Cycler, CFX96™ Real-Time System, BioRad, USA). Melting temperatures were determined using GraphPad Prism, following a published procedure.[6]

[3] = molecular target: T1, SIRT2; assay: Jump-dilution assay; assay type: biochemical
[4] = test system: α‐tubulin; design: method as in PMID 35441145; conditions: cited from earlier work

| SMILES | change of affinity upon NAD+ addition (FP) [1] | ΔTm at 10 µM ([2]; 10 µM compound, with NAD+ addition) | SIRT2 enzymatic activity after jump dilution ([3]; preincubation of SIRT2 with compound and NAD+ (30 min), 1:100 dilution to 4 nM) | SIRT2 enzymatic activity after jump dilution ([3]; without NAD+ preincubation, 1:100 dilution) | NAD+-dependent thermal stabilization of SIRT2 ([2]; upon NAD+ addition) | α-tubulin hyperacetylation [4] |
| --- | --- | --- | --- | --- | --- | --- |
| Cc1cc(C)nc(SCC(=O)Nc2ncc(Cc3cccc(OCc4c[nH]nn4)c3)s2)n1 [Compound 7] | increased affinities upon NAD+ addition | – | – | – | – | – |
| CCCCCCCCCCCCc1cn(CCCC[C@H](NC(=O)[C@H](CCCCN)NC(=O)[C@@H]2CCCN2C(=O)[C@H](CC(C)C)NC(=O)[C@H](C)NC(=O)[C@H](CCC(=O)O)NC(C)=O)C(=O)N[C@H](C(=O)NCC(=O)NCC(N)=O)[C@@H](C)O)nn1 [Compound 6] | – | 16.3 ± 0.1 °C | 13% | 72% | – | – |
| COCCn1cc(COc2cccc(Cc3cnc(NC(=O)CSc4nc(C)cc(C)n4)s3)c2)nn1 [Compound 1, reference compound] | increased affinities upon NAD+ addition | – | – | – | pronounced NAD^+‐dependent thermal stabilization | pronounced α‐tubulin hyperacetylation |
